Measured values: patent publication US20260234165A1, “MACROCYCLIC COMPOUNDS, PREPARATION METHOD THEREFOR, AND USE THEREOF” (GENFLEET THERAPEUTICS (SHANGHAI) INC., priority 2004, published 2026)
Where two headings read alike, the source gives them in different places.

Columns and labels:
Type in all cases: cell-based, human
[1] = tested on: p-ERK in NCI-H441 cells (KRAS G12V mutation); assay: Cell p-ERK assay (HTRF) in NCI-H441 cells
Description: (§1) AsPC-1 cells were purchased from ATCC, Cat. No. CRL-1682: NCI-H441 cells were purchased from ATCC, Cat. No. HTB-174: RPMI-1640 medium was purchased from Gibco, Cat. No. I1875-093: FBS was purchased from Gibco, Cat. No. 10099-141C: penicillin/streptomycin double-antibiotic solution (PS) was purchased from Gibco, Cat. No. 15140-122: trypsin (containing EDTA) was purchased from Gibco, Cat. No. 25200-072; DMSO was purchased from VWRAMRESCO, Cat. No. 0231-500ML; 96-well cell culture plates were purchased from Corning, Cat. No. 3599: white-bottomed, opaque 96-well plates were purchased from Cisbio, Cat. No. 66PL96025; Advance ERK phospho-T202/Y204 kit was purchased from Cisbio, Cat. No. 64AERPEH; cell counter was purchased from CHEMOMETEC, model: NC-200; microplate reader was purchased from PerkinElmer, model: EnVision.
(§2) AsPC-1, a human pancreatic cancer cell strain endogenously containing a KRAS^G12D mutation, was cultured in a complete medium containing RPMI-1640+10% FBS+1% PS. NCI-H441, a human non-small cell lung cancer cell strain endogenously containing a KRAS^G12V mutation, was cultured in a complete medium containing RPMI-1640+10% FBS+1% PS.
(§3) The cells were digested with trypsin (containing EDTA), collected in their corresponding complete media, and counted. The density of the cell suspensions was adjusted with their corresponding complete media, and 10000 AsPC-1 cells or 20000 NCI-H441 cells per well were seeded into a 96-well cell culture plate, with the volume of the medium in each well being 80 μL.
(§4) The cell culture plate was incubated in an incubator at 37° C. with 5% CO2 overnight. A series of 3.16-fold gradient dilutions of a 1000- compound stock solution were prepared with DMSO, and then diluted 200-fold with the complete medium described above to give 5′ compound stock solutions. On the day after cell seeding, 20 μL of the 5× compound stock solution was added to each cell culture well. As a result, the final concentration of the compound in the cell culture well became 1×, and the DMSO content in the well was 0.1%. In addition to the compound-treated wells described above, cell-containing DMSO control wells were also set. A complete medium containing 0.5% DMSO was added at 20 μL/well. After the mixture was well mixed, the culture plate was incubated in the incubator at 37° C. with 5% CO2 for another 3 h. The medium was then removed from the culture wells, and 50 μL of cell lysis buffer (from Advance ERK phospho-T202,Y204 kit) was added to each well. The mixture was well mixed and incubated for 30 min. Then, 16 μL of the mixture was transferred to a white-bottomed, opaque 96-well assay plate, and separately, 16 μL of cell lysis buffer was added to additional wells (serving as blank wells) in the assay plate. After the transfer was completed, 4 μL of p-ERK HTRF antibody mixture (from Advance ERK phospho-T202/Y204 kit) was added to each well of the assay plate, followed by a 4-hour incubation. The HTRF signal values (RLU) were then measured using a microplate reader, and the inhibition rate of the compound against p-ERK levels was calculated as follows: IR (%)=(RLUDMSO−RLUcompound)/(RLUDMSO−RLUblank)×100%, where RLUDMSO is the average HTRF signal value from the DMSO control well samples, RLUblank is the average HTRF signal value from the blank well samples, and RLUcompound is the HTRF signal value from the compound-treated well samples. Using an XLfit software, the IR (%) values were plotted against the logarithm of the compound concentrations, and the dose-response curves were fitted using the four-parameter method to calculate the IC50 values.

[2] = tested on: p-ERK in AsPC-1 cells (KRAS G12D mutation); assay: Cell p-ERK assay (HTRF) in AsPC-1 cells
Description: as §1, §2, §3, §4

NCI-H441 cells = assay: 3D cell proliferation assay (CellTiter Glo-3D), NCI-H441; settings: medium with 2% FBS, read-out: H441 AP IC50
Excerpt: MIA PaCa-2 cells were purchased from ATCC, Cat. No. CRL-1420; AsPC-1 cells were purchased from ATCC, Cat. No. CRL-1682; NCI-H441 cells were purchased from ATCC, Cat. No. HTB-174: NCI-H1975 cells were purchased from ATCC. Cat. No. CRL-5908; DMEM medium was purchased from Gibco, Cat. No. 11995-065: RPMI-1040 medium was purchased from Gibco. Cat. No. H 18754093; FBS was purchased from Gibco, Cat. No. 10099-141C. penicillin, streptomycin double-antibiotic solution (PS) was purchased from Gibco, Cat. No. 15140-122; Horse serum was purchased from Gibco. Cat. No. 16050130: trypsin (containing EDTA) was purchased from Gibco, Cat. No. 25200-072; DMSO was purchased from VWRAMRESCO, Cat. No. 0231-500ML; 384-well cell culture plates were purchased from Corning, Cat. No. 3830; white-bottomed, opaque 384-well assay plates were purchased from Corning, Cat. No. 3570. CellTiter Glo-3D) kit was purchased from Promega. Cat. No. G9683; cell counter was purchased from CHEMOMETEC, model: NC-200: microplate reader was purchased from PerkinElmer, model: EnVision.
MIA PaCa-2, a human pancreatic cancer cell strain endogenously containing a KRAS^G12C mutation, was cultured in a complete medium containing DMEM+10% FBS+2.5% Horse serum+1% PS. AsPC-1, a human pancreatic cancer cell strain endogenously containing a […] mutation, was cultured in a complete medium containing RPMI-1640+10% FBS+1% PS. NCI-H441 cells, a human lung cancer cell strain endogenously containing a […] mutation, were cultured in a complete medium containing RPMI-1640+10% FBS+1% PS. NCI-H1975, a KRAS wild-type human lung cancer cell strain whose cell proliferation depends on KRAS activity, was cultured in a complete medium containing RPMI-1640+10% FBS+1% PS.
The cells were digested with trypsin (containing EDTA), collected in their respective low-serum complete media containing 2% FBS (for MIA Paca-2 cell culture: DMEM+2% FBS+0.5% Horse serum+1% PS), and counted. After the cell density was adjusted as required, 200 MIA PaCa-2 cells, 800 AsPC-1 cells, 800 NCI-H441 cells, or 400 NCI-H1975 cells per well were seeded into a 384-well cell culture plate, with the volume of the medium in each well being 45 μL. The cell culture plate was incubated in an incubator at 37° C. with 5% CO2, overnight. A series of 3.16-fold gradient dilutions of a 1000× compound stock solution were prepared with DMSO, and then diluted 100-fold with the complete medium containing 2% FBS described above to give 10- compound stock solutions. On the day after cell seeding, 5 μL of the 10- compound stock solution was added to each cell culture well. As a result, the final concentration of the compound in the cell culture well became 1×, and the DMSO content in the well was 0.1%. In addition to the compound-treated wells described above, cell-containing DMSO control wells (with 5 μL of the complete medium containing 1% DMSO added to each well) and cell-free medium control wells (containing 50 μL of the complete medium with 2% FBS) were also set. The culture plate was incubated in an incubator at 37° C. with 5% CO2 for another 5 days, and then 30 μL of CellTiter-Glo working solution was added to each well. The mixture was well mixed, incubated for 30 min, left to stand at room temperature for 30 min, and then transferred to a white-bottomed, opaque 384-well assay plate at 40 μL/well. The chemiluminescence values (RLU) were measured using a microplate reader, and the cell proliferation inhibition rate for each well was calculated: IR (%)=(RLUDMSO—RLUcompound)/(RLUDMSO−RLUblank)×100%, where RLUDMSO is the average RLU signal value from the DMSO control well samples, RLUblank is the average RLU signal value from the medium control well samples, and RLUcompound is the RLU signal value from the compound-treated well samples. […]

[3] = Homo sapiens, NCI-H441, 3 h, NCI-H441 cells, 3 h compound incubation, HTRF p-ERK T202/Y204, read-out: H441 p-ERK IC50
[4] = Homo sapiens, ASPC1, 3 h, AsPC-1 cells, 3 h compound incubation, HTRF p-ERK T202/Y204, read-out: AsPC-1 p-ERK IC50
[5] = NCI-H441 cells, 3 h compound incubation, HTRF p-ERK T202/Y204, read-out: H441 p-ERK IC50

Row | Structure (SMILES) | IC50 [1, 3] | IC50 [2, 4] | IC50 [1, 5] | also measured
1 | CCn1c(-c2cc(C#CCN3CCC(O)(c4cccc(C)[n+]4[O-])CC3)cnc2[C@H](C)OC)c2c3cc(ccc31)-c1csc(n1)C[C@H](NC(=O)[C@H]1[C@H](C)[C@@H]1C)C(=O)N1CCC[C@H](N1)C(=O)OCC(C)(C)C2 (atropisomer, axis not shown; (Ra)) [Compound Z1055, 2-(1-(3-(5-((6^3S,4S,Z)-4-((r,2R,3S)-2,3-dimethylcyclopropane-1-carboxamido)-1^1-ethyl-10,10-dimethyl-5,7-dioxo-6^1,6^2,6^3,6^4,6^5,6^6-hexahydro-1^1H-8-oxa-2(4.2)-thiazola-1(5,3)-indola-6(1.3)-pyridazinacycloundecaphane-12-yl)-(Ra)-6-((S)-1-methoxyethyl)pyridin-3-yl)prop-2-yn-1-yl)-4-hydroxypiperidin-4-yl)-6-methylpyridine 1-oxide] | – | – | – | IC50 ([1]; Homo sapiens, NCI-H441, 3 h, read-out: H441 p-ERK IC50(nM)): 0.19 nM; IC50 ([2]; Homo sapiens, ASPC1, 3 h, read-out: AsPC-1 p-ERK IC50(nM)): 0.32 nM
2 | CCn1c(-c2cc(C#CCN3CCCOCC3)cnc2[C@H](C)OC)c2c3cc(ccc31)-c1csc(n1)C[C@H](NC(=O)[C@H](C(C)C)N(C)[S@](C)(=O)=NC)C(=O)N1CCC[C@H](N1)C(=O)OCC(C)(C)C2 (single isomer, unassigned) [Compound Z912-1] | 2.61 nM | – | – | IC50 (NCI-H441 cells; Homo sapiens, NCI-H441, 3D cell proliferation (CellTiter Glo-3D)): 5.13 nM
3 | CCn1c(-c2cc(C#CCN3CCCOCC3)cnc2[C@H](C)OC)c2c3cc(ccc31)-c1csc(n1)C[C@H](NC(=O)[C@H](C(C)C)N(C)[S@@](C)(=O)=NC)C(=O)N1CCC[C@H](N1)C(=O)OCC(C)(C)C2 (single isomer, unassigned) [Compound Z912-2] | – | – | 3.41 nM | IC50 (NCI-H441 cells; 3D cell proliferation (CellTiter Glo-3D)): 8.59 nM

Further lines, with some results ahead:

Row | IC50 [1, 3] | IC50 [2, 4] | IC50 [1, 5] | Structure (SMILES) | also measured
4 | 0.16 nM | 0.27 nM | – | CCn1c(-c2cc(C#CCN3CCCOCC3)c[n+]([O-])c2C(C)C)c2c3cc(ccc31)-c1csc(n1)C[C@H](NC(=O)[C@H]1[C@H](C)[C@@H]1C)C(=O)N1CCC[C@H](N1)C(=O)OCC(C)(C)C2 (atropisomer, axis not shown; (Ra)) [Compound Z950, (1r,2R,3S)—N-((6^3S,4S,Z)—(Ra)-1^2-(5-(3-(1,4-oxazepan-4-yl)prop-1-yn-1-yl)-2-isopropylpyridin-1-oxide-3-yl)-1^1-ethyl-10,10-dimethyl-5,7-dioxo-6^1,6^2,6^3,6^4,6^5,6^6-hexahydro-1^1H-8-oxa-2(4,2)-thiazola-1(5,3)-indola-6(1,3)-pyridazinacycloundecaphane-4-yl)-2,3-dimethylcyclopropane-1-carboxamide] | –
5 | 1.01 nM | 4.15 nM | – | CCn1c(-c2cc(C#CCN3CCC(C#N)CC3)cnc2[C@H](C)OC)c2c3cc(ccc31)-c1csc(n1)C[C@H](Nc1nnc3cc(C)ccn13)C(=O)N1CCC[C@H](N1)C(=O)OCC(C)(C)C2 (atropisomer, axis not shown; (Ra)) [Compound Z959] | –
6 | – | – | 0.15 nM | CCn1c(-c2cc(C#CCN3CCS(=O)(=O)CC3)cnc2C(C)OC)c2c3cc(ccc31)-c1csc(n1)CC(NC(=O)CC1CC1)C(=O)N1CCCC(N1)C(=O)OCC(C)(C)C2 (atropisomer, axis not shown; (Ra)) [Compound Z962, 2-cyclopropyl-N-((6^3S,4S,Z)—(Ra)-1^2-(5-(3-(1,1-dioxidothiomorpholino)prop-1-yn-1-yl)-2-((S)-1-methoxyethyl)pyridin-3-yl)-1^1-ethyl-10,10-dimethyl-5,7-dioxo-6^1,6^2,6^3,6^4,6^5,6^6-hexahydro-1^1H-8-oxa-2(4,2)-thiazola-1(5,3)-indola-6(1,3)-pyridazinacycloundecaphane-4-yl)acetamide] | IC50 ([2]; AsPC-1 cells, 3 h compound incubation, HTRF p-ERK T202/Y204, read-out: AsPC-1 p-ERK IC50): 0.26 nM
